From ChEMBL document CHEMBL1145877, “5H-8,9-dimethoxy-5-(2-N,N-dimethylaminoethyl)dibenzo[c,h][1,6]naphthyridin-6-ones and related compounds as TOP1-targeting agents: influence of structure on the ternary cleavable complex formation” (Bioorg Med Chem Lett, 2003)

Molecular target: T1, DNA topoisomerase 1 (Homo sapiens) (UniProt P11387)
T1 sequence (whole entry): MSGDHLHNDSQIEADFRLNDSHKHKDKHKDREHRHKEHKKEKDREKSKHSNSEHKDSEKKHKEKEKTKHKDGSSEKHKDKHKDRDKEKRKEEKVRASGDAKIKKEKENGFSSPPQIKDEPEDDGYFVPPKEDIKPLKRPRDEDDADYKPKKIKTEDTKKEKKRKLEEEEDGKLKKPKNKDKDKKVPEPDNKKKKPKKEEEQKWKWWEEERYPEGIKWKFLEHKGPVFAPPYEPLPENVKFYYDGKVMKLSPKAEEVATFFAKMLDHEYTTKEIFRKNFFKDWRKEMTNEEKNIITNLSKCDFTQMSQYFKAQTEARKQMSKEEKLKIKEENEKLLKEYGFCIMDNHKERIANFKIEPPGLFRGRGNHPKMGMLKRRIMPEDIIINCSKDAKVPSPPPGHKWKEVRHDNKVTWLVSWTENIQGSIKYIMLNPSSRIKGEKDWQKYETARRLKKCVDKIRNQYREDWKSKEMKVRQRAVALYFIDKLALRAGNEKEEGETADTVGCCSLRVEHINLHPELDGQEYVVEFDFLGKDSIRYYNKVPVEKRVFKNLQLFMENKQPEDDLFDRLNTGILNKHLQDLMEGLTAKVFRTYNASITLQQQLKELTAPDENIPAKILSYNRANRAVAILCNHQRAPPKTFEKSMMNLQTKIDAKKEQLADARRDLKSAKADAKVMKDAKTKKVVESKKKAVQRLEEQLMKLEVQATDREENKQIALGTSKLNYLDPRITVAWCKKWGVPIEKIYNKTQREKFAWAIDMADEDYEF
Test: Concentration relative to topotecan for topoisomerase DNA topoisomerase I cleavage

Compound	REC
COc1cc2c(=O)n(CCN(C)C)c3c(cnc4cccc([N+](=O)[O-])c43)c2cc1OC	300
COc1cc2c(=O)n(CCN(C)C)c3c4cc([N+](=O)[O-])ccc4ncc3c2cc1OC	2
COc1cc2c(cc1OC)-c1cnc3cc4c(cc3c1N(CCN(C)C)C2)OCO4	0.8

Second part, the molecule after the results:

REC	Compound
9	COc1cc2c(=O)n(CCN(C)C)c3c4cccc([N+](=O)[O-])c4ncc3c2cc1OC
1	COc1cc2c(=O)n(CCCN(C)C)c3c4cc5c(cc4ncc3c2cc1OC)OCO5
0.3	COc1cc2c(=O)n(CCN(C)C)c3c4cc5c(cc4nnc3c2cc1OC)OCO5
6	COc1cc2c(=O)n(CCN(C)C)c3c4ccc([N+](=O)[O-])cc4ncc3c2cc1OC
